Laboratory results: patent publication US8318708B2, “Use of vitamin D receptor agonists, ligands, and precursors to treat pancreatic fibrosis” (Salk Institute for Biological Studies, priority 2007, dated 2012)

What was measured:
VDR = biological target: T1, VDR (Rattus norvegicus, UniProt P13053); assay: Western blot of VDR in sinusoidal endothelial cells (SECs); type: cell-based; design: endogenous in cells; host or cells: primary rat hepatic stellate cells, sinusoidal endothelial cells, Kupffer cells and hepatocytes (Sprague-Dawley rats); conditions: FIG. 10A
T1 sequence (P13053 1-423): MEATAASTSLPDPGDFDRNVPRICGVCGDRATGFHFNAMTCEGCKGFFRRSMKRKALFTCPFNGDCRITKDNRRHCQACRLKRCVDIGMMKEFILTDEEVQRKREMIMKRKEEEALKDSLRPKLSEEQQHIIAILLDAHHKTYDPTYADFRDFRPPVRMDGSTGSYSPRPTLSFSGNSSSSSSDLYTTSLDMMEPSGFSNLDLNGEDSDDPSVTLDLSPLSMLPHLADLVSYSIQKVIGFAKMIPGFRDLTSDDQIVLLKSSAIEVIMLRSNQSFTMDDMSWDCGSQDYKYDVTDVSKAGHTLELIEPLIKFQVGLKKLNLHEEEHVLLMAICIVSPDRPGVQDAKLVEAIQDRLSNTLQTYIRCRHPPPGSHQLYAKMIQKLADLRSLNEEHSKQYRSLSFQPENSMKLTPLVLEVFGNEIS
Description: Hepatic sinusoidal endothelial cells (SECs) and Kupffer cells (KCs) were elutriated from rat liver and maintained in cell culture.

HSCs = conditions: rat HSCs 24 h; LPS 15 ng/ml, TGFβ 2 ng/ml, calcitriol 10 nM; control = 1
Protocol: For Illumina microarray analysis, Illumina TotalPrep RNA Amplification Kit (Ambion; Catalog # IL1791) was used with the manufacturer's instructions for the RNA amplification. […] Essentially, biotinylated cRNA was prepared according to the manufacturer's directions starting with 200 ng total RNA. Hybridization to the Illumina Sentrix RatRef-12 v.1 and Mouse RefSeq version 2 Expression BeadChips (Illumina, Inc., San Diego, Calif.), washing and scanning were performed according to the Illumina BeadStation 500× manual (revision C). […] RNA is isolated using Trizol and the quality/integrity of the total RNA verified using a Bioanalyzer (Agilent).
Microarray experiments were repeated two times with RNA from two experiments where HSCs were isolated from two different rats and for each condition triplicate samples were used. The “Detection Score” was used to determine expression using the Illumina platform. It is a statistical measure in the BeadStudio software (version 1.5.0.34), which is computed based on the Z-value of a gene relative to the Z-value of the negative controls. The Illumina data were adjusted (“normalized”) using a cubic spline function. […] The expression difference score, DiffScore, takes into account background noise and sample variability. […] Illumina expression arrays utilize gene-specific 50-mer oligonucleotide probes with an average of 30 replicates of each probe bead per individual array.
Two different HSCs from different rats were used for the lumina microarray analysis. […] Values are expressed as fold change relative to control cells treated with vehicle alone.

Question: “TGF-β1: transforming growth factor beta 1; human recombinant from Sigma-Aldrich T7039” was tested. Which VDR protein expression (VDR) did it give?
Answer: induced

Question: What about the Ccl5 gene expression (HSCs) of the same substance?
Answer: 0.957 fold change

Question: And the Ccl12 gene expression (HSCs)?
Answer: 1.167 fold change

Question: And the Ccl20 gene expression (HSCs)?
Answer: 0.999 fold change

Question: What about the Col1a1 gene expression (HSCs) of the same substance?
Answer: 3.014 fold change

Question: What about the Col1a2 gene expression (HSCs) of the same substance?
Answer: 2.256 fold change

Question: And the Col3a1 gene expression (HSCs)?
Answer: 1.878 fold change

Question: What about the Col5a1 gene expression (HSCs) of the same substance?
Answer: 2.322 fold change

Question: What about the Col5a2 gene expression (HSCs) of the same substance?
Answer: 1.583 fold change

Question: What about the Col6a3 gene expression (HSCs) of the same substance?
Answer: 1.611 fold change

Question: And the Col8a1 gene expression (HSCs)?
Answer: 2.240 fold change

Question: What about the Csf2 gene expression (HSCs) of the same substance?
Answer: 0.803 fold change

Question: What about the Ctgf gene expression (HSCs) of the same substance?
Answer: 1.919 fold change

Question: What about the Cx3cl1 gene expression (HSCs) of the same substance?
Answer: 0.864 fold change

Question: What about the Cxcl5 gene expression (HSCs) of the same substance?
Answer: 0.971 fold change

Question: And the Cxcl9 gene expression (HSCs)?
Answer: 0.875 fold change

Question: And the Cxcl11 gene expression (HSCs)?
Answer: 1.05 fold change

Question: And the Icam1 gene expression (HSCs)?
Answer: 1.371 fold change

Question: And the Il1a gene expression (HSCs)?
Answer: 0.517 fold change

Question: And the Il1b gene expression (HSCs)?
Answer: 0.322 fold change

Question: What about the Il6 gene expression (HSCs) of the same substance?
Answer: 0.791 fold change

Question: And the Il10 gene expression (HSCs)?
Answer: 0.837 fold change

Question: And the Mmp7 gene expression (HSCs)?
Answer: 1.692 fold change

Question: What about the Mmp10 gene expression (HSCs) of the same substance?
Answer: 1.856 fold change

Question: And the Mmp13 gene expression (HSCs)?
Answer: 1.342 fold change

Question: And the Smad2 gene expression (HSCs)?
Answer: 1.381 fold change

Question: And the Smad3 gene expression (HSCs)?
Answer: 1.116 fold change

Question: What about the Smad4 gene expression (HSCs) of the same substance?
Answer: 1.325 fold change

Question: And the Tgfb1 gene expression (HSCs)?
Answer: 1.502 fold change

Question: What about the Tgfbr1 gene expression (HSCs) of the same substance?
Answer: 1.317 fold change

Question: And the Timp1 gene expression (HSCs)?
Answer: 1.026 fold change

Question: What about the Timp2 gene expression (HSCs) of the same substance?
Answer: 1.823 fold change

Question: What about the Tlr2 gene expression (HSCs) of the same substance?
Answer: 1.092 fold change

Question: What about the Tlr4 gene expression (HSCs) of the same substance?
Answer: 1.349 fold change

Question: What about the Tnf gene expression (HSCs) of the same substance?
Answer: 1.078 fold change

Question: What about the Tnfrsf5 gene expression (HSCs) of the same substance?
Answer: 1.339 fold change

Question: What about the Tnfrsf14 gene expression (HSCs) of the same substance?
Answer: 1.373 fold change

Question: And the Vcam1 gene expression (HSCs)?
Answer: 1.482 fold change
